Where two headings read alike, the source gives them in different places.
Test system: Mycosphaerella graminicola; Anamorph: Septoria tritici; Bayer Code SEPTTR
Experiment: Leaf blotch of wheat, foliar fungicide treatment, one day protectant (1DP) or three day curative (3DC)
Format: in vivo, Septoria tritici on wheat plants (variety Yuma)
Settings: Zymoseptoria tritici; for pest or weed control at 200 ppm / pest or weed control at 50 ppm: % disease control rating
[1] = 24 h, one day protectant (1DP), 25 ppm, percent disease control rating, read-out: SETTTR 1DP 25 ppm
[2] = 24 h, one day protectant (1DP), percent disease control rating, read-out: SEPTTR 1DP 100 ppm
[3] = 72 h, three day curative (3DC), 25 ppm, percent disease control rating, read-out: SEPTTR 3DC 25 ppm
[4] = 72 h, three day curative (3DC), percent disease control rating, read-out: SEPTTR 3DC 100 ppm
[5] = 24 h, one day protectant (1DP), 25 ppm, rating of percent disease control, read-out: SETTTR 1DP 25 ppm
[6] = 24 h, one day protectant (1DP), rating of percent disease control, read-out: SEPTTR 1DP 100 ppm
[7] = 72 h, three day curative (3DC), 25 ppm, rating of percent disease control, read-out: SEPTTR 3DC 25 ppm
[8] = 72 h, three day curative (3DC), rating of percent disease control, read-out: SEPTTR 3DC 100 ppm
[9] = 24 h, one day protectant, 25 ppm, rating of percent disease control, read-out: SETTTR 1DP 25 ppm
[10] = 24 h, one day protectant, rating of percent disease control, read-out: SEPTTR 1DP 100 ppm
[11] = 72 h, three day curative, 25 ppm, rating of percent disease control, read-out: SEPTTR 3DC 25 ppm
[12] = 72 h, three day curative, rating of percent disease control, read-out: SEPTTR 3DC 100 ppm
[13] = 24 h, one day protectant (1DP), 25 ppm (first 1DP column), percent control rating, read-out: SETTTR 1DP 25 ppm
[14] = 24 h, one day protectant (1DP), 25 ppm as printed (second 1DP column), percent control rating, read-out: SETTTR 1DP 25 ppm
[15] = 72 h, three day curative (3DC), 25 ppm, percent control rating, read-out: SEPTTR 3DC 25 ppm
[16] = 72 h, three day curative (3DC), percent control rating, read-out: SEPTTR 3DC 100 ppm

COc1cccc(COc2ncc(F)c(NCc3cccs3)n2)c1 [Compound 931]
pest or weed control at 200 ppm (24 h, one day protectant): 76 to 100%

CN1CCCC/C1=N\c1nc(OCc2ccc(F)cc2)ncc1F [Compound 160]
pest or weed control at 25 ppm [1]: 76 to 100% | pest or weed control at 100 ppm [2]: 76 to 100% | pest or weed control at 25 ppm [3]: 76 to 100% | pest or weed control at 100 ppm [4]: 76 to 100%

CC[Si](CC)(CC)Nc1nc(OCc2cccs2)ncc1F [Compound 503]
pest or weed control at 25 ppm [5]: 76 to 100% | pest or weed control at 100 ppm [6]: 76 to 100% | pest or weed control at 25 ppm [7]: 76 to 100% | pest or weed control at 100 ppm [8]: 76 to 100%

CCOCNc1nc(OCc2cccc(OC)c2)ncc1F [Compound 601]
pest or weed control at 25 ppm [9]: 76 to 100% | pest or weed control at 100 ppm [10]: 76 to 100% | pest or weed control at 25 ppm [11]: 76 to 100% | pest or weed control at 100 ppm [12]: 76 to 100%

Fc1cnc(OCc2ccccc2)nc1NNc1ccc(Br)cc1 [Compound 1035]
pest or weed control at 25 ppm [13]: 0 to 25% | pest or weed control at 25 ppm [14]: 0 to 25% | pest or weed control at 25 ppm [15]: 0 to 25% | pest or weed control at 100 ppm [16]: 0 to 25%

ONc1nc(OCc2ccccc2)ncc1F [Compound 390]
pest or weed control at 25 ppm [5]: 76 to 100% | pest or weed control at 100 ppm [6]: 76 to 100% | pest or weed control at 25 ppm [7]: 76 to 100% | pest or weed control at 100 ppm [8]: 76 to 100%

CC(Oc1ncc(F)c(N)n1)c1ccc(Cl)c(Cl)c1Cl (stereo not drawn) [Compound 607]
pest or weed control at 25 ppm [9]: 0 to 25% | pest or weed control at 100 ppm [10]: 0 to 25% | pest or weed control at 25 ppm [11]: 0 to 25% | pest or weed control at 100 ppm [12]: 26 to 50%

CCOC(=O)Nc1nc(OCc2ccccc2)ncc1F [Compound 71]
pest or weed control at 25 ppm [1]: 76 to 100% | pest or weed control at 100 ppm [2]: 76 to 100% | pest or weed control at 25 ppm [3]: 76 to 100% | pest or weed control at 100 ppm [4]: 76 to 100%

Nc1nc(OCc2ccc(OC(F)F)cc2)ncc1F [Compound 136]
pest or weed control at 25 ppm [1]: 76 to 100% | pest or weed control at 100 ppm [2]: 76 to 100% | pest or weed control at 25 ppm [3]: 76 to 100% | pest or weed control at 100 ppm [4]: 76 to 100%

C=CCOc1ncc(F)c(NOCC)n1 [Compound 1072]
pest or weed control at 25 ppm [13]: 0 to 25% | pest or weed control at 25 ppm [14]: 0 to 25% | pest or weed control at 25 ppm [15]: 0 to 25% | pest or weed control at 100 ppm [16]: 0 to 25%

Nc1nc(OCc2cccs2)ncc1F [Compound 213]
pest or weed control at 25 ppm [5]: 76 to 100% | pest or weed control at 100 ppm [6]: 76 to 100% | pest or weed control at 25 ppm [7]: 76 to 100% | pest or weed control at 100 ppm [8]: 76 to 100%

C/C(=N\Oc1ncc(F)c(N)n1)c1cnc(OCC(F)(F)F)nc1 [Compound 1001]
pest or weed control at 25 ppm [13]: 26 to 50% | pest or weed control at 25 ppm [14]: 76 to 100% | pest or weed control at 25 ppm [15]: 26 to 50% | pest or weed control at 100 ppm [16]: 76 to 100%

Cc1ccc(CNc2nc(OCC(F)(F)F)ncc2F)cc1 [Compound 872]
pest or weed control at 50 ppm (24 h, one day protectant): 26 to 50% | pest or weed control at 200 ppm (24 h, one day protectant): 51 to 75%

CC(Oc1ncc(F)c(NCO)n1)c1ccc(F)cc1 (stereo not drawn) [Compound 88]
pest or weed control at 25 ppm [1]: 26 to 50% | pest or weed control at 100 ppm [2]: 76 to 100% | pest or weed control at 25 ppm [3]: 26 to 50% | pest or weed control at 100 ppm [4]: 76 to 100%

C/C(=N\Oc1ncc(F)c(N)n1)c1ccc(F)cc1 [Compound 72]
pest or weed control at 25 ppm [1]: 76 to 100% | pest or weed control at 100 ppm [2]: 76 to 100% | pest or weed control at 25 ppm [3]: 76 to 100% | pest or weed control at 100 ppm [4]: 76 to 100%

COc1cccc(COc2ncc(F)c(NS(C)(=O)=O)n2)c1 [Compound 1011]
pest or weed control at 25 ppm [13]: 0 to 25% | pest or weed control at 25 ppm [14]: 0 to 25% | pest or weed control at 25 ppm [15]: 0 to 25% | pest or weed control at 100 ppm [16]: 0 to 25%

CN(C)/C=N/c1nc(OC(=O)Oc2ccc(Cl)cc2)ncc1F [Compound 361]
pest or weed control at 25 ppm [5]: 51 to 75% | pest or weed control at 100 ppm [6]: 76 to 100% | pest or weed control at 25 ppm [7]: 76 to 100% | pest or weed control at 100 ppm [8]: 76 to 100%

Fc1ccc(COc2ncc(F)c(NNc3cccc(F)n3)n2)cc1 [Compound 1047]
pest or weed control at 25 ppm [13]: 0 to 25% | pest or weed control at 25 ppm [14]: 0 to 25% | pest or weed control at 25 ppm [15]: 26 to 50% | pest or weed control at 100 ppm [16]: 26 to 50%

COc1ncc(F)c(NNC(=O)c2ccc(Cl)cc2)n1 [Compound 1121]
pest or weed control at 25 ppm [13]: 0 to 25% | pest or weed control at 25 ppm [14]: 0 to 25% | pest or weed control at 25 ppm [15]: 0 to 25% | pest or weed control at 100 ppm [16]: 0 to 25%

Fc1ccccc1CNc1nc(OCc2cccc(Cl)c2)ncc1F [Compound 924]
pest or weed control at 50 ppm (24 h, one day protectant): 76 to 100% | pest or weed control at 200 ppm (24 h, one day protectant): 76 to 100%

CC(=O)OCOc1ncc(F)c(/N=C/N(C)C)n1 [Compound 1083]
pest or weed control at 25 ppm [13]: 76 to 100% | pest or weed control at 25 ppm [14]: 76 to 100% | pest or weed control at 25 ppm [15]: 76 to 100% | pest or weed control at 100 ppm [16]: 76 to 100%

Nc1nc(OC(c2ccccc2)c2ccc(F)cc2)ncc1F (stereo not drawn) [Compound 406]
pest or weed control at 25 ppm [5]: 76 to 100% | pest or weed control at 100 ppm [6]: 76 to 100% | pest or weed control at 25 ppm [7]: 76 to 100% | pest or weed control at 100 ppm [8]: 76 to 100%
